This is an account of results in patent US7232833B2, “4-substituted quinoline derivatives, method and intermediates for their preparation and pharmaceutical compositions containing them” (Novexel, priority 2003, dated 2007).

In brackets after ≈: the same amount, converted by molar mass. Counter-ions that a name gives are not always drawn.

One data set relates to E. faecalis ATCC29212. Description: MIC by dilutions in agar medium (NCCLS). It counts as cell-based. The following applies: Enterococcus faecalis, Gram-positive, at 24 hours, agar dilution. From the text:
(§1) a) Activity in vitro The method of dilutions in agar medium in agreement with the NCCLS recommendations is used for the determination of the minimum inhibitory concentrations (MIC) expressed in μg/ml.
(Agar dilution tests growth on a series of plates holding different concentrations.)

Data set [1] deals with M. catarrhalis IPA151 sensitive. Description: MIC by dilutions in agar medium (NCCLS). To be noted: Moraxella catarrhalis, IPA151SENSITIVE; Gram-negative, at 48 hours, agar dilution. It counts as cell-based.
Source text: as §1

In data set [2] the test system is S. aureus AS 5155 methicillin resistant. Put plainly: MIC by dilutions in agar medium (NCCLS). Type of data set: cell-based. The following applies: Staphylococcus aureus; Gram-positive, at 24 hours, agar dilution.
Source text: as §1

Data set [3] relates to S. aureus IP8203 sensitive. Put plainly: MIC by dilutions in agar medium (NCCLS). It counts as cell-based. The following applies: Staphylococcus aureus; Gram-positive, at 24 hours, agar dilution.
Source text: as §1

The test system of data set [4] is S. pneumoniae 6254-01 MLSB resistant. Put plainly: MIC by dilutions in agar medium (NCCLS). It counts as cell-based. The following applies: Streptococcus pneumoniae; Gram-positive, at 24 hours, agar dilution.
Source text: as §1

In the case of `COc1ccc2ncc(Cl)c(CCCC3(C(=O)O)CCN(C/C=C/c4cc(F)ccc4F)C3)c2c1` (racemic) (as salt: sodium) [Example 15, (±)-3-[3-(3-chloro-6-methoxyquinolin-4-yl)propyl]-1-[(2E)-3-(2,5-difluorophenyl)-2-propenyl]-3-pyrrolidinecarboxylic acid], the melting point (in general, the temperature, or range, at which the solid turns liquid) was 77 °C.

Regarding `COc1ccc2ncc(F)c(CCCC3(C(=O)O)CCN(C/C=C/c4cc(F)ccc4F)C3)c2c1` (racemic) [Example 1, (±)-1-[(2E)-3-(2,5-difluorophenyl)-2-propenyl]-3-[3-(3-fluoro-6-methoxyquinolin-4-yl)propyl]-3-pyrrolidinecarboxylic acid], the melting point stood at 77 °C. Besides, in the data set on E. faecalis ATCC29212, the MIC – broadly, the lowest concentration found to suppress growth – fell in the range of 0.25 to 32 µg/mL (≈ 0.516 to 66 µM). The molecule also showed an MIC in data set [1] of 0.12 to 2 µg/mL (≈ 0.248 to 4.13 µM). In data set [2], this molecule registered an MIC of 0.015 to 4 µg/mL (≈ 0.031 to 8.26 µM). This molecule also displayed an MIC in data set [3] of 0.015 to 4 µg/mL (≈ 0.031 to 8.26 µM). For the same molecule, the MIC in data set [4] was in the range of 0.015 to 4 µg/mL (≈ 0.031 to 8.26 µM).

Take `COC(=O)C1(CCCc2c(F)cnc3ccc(OC)cc23)CCN(C/C=C/c2cc(F)ccc2F)C1` (racemic) [Example 2, Methyl (±)-1-[(2E)-3-(2,5-difluorophenyl)-2-propenyl]-3-[3-(3-fluoro-6-methoxyquinolin-4-yl)propyl]-3-pyrrolidinecarboxylate]: the MIC in the data set with E. faecalis ATCC29212 lay in the range of 0.25 to 32 µg/mL (≈ 0.501 to 64.2 µM); in data set [1], 0.12 to 2 µg/mL (≈ 0.241 to 4.01 µM); in data set [2], 0.015 to 4 µg/mL (≈ 0.0301 to 8.02 µM); in data set [3], 0.015 to 4 µg/mL (≈ 0.0301 to 8.02 µM); in data set [4], 0.015 to 4 µg/mL (≈ 0.0301 to 8.02 µM).

`COc1ccc2ncc(F)c(CCCC3(C(=O)O)CCN(C/C=C/c4c(F)cccc4F)C3)c2c1` (single isomer, unassigned) (as salt: hydrochloride) [Example 41, 3-[3-(3-fluoro-6-methoxyquinolin-4-yl)propyl]-1-[(2E)-3-(2,6-difluorophenyl)-2-propenyl]-3-pyrrolidinecarboxylic acid] showed a melting point of 96 °C.

As to `COc1ccc2ncc(F)c(CCCC3(C(=O)O)CCN(C/C=C/c4cc(F)ccc4F)C3)c2c1` (single isomer, unassigned) [Example 3, 1-[(2E)-3-(2,5-difluorophenyl)-2-propenyl]-3-[3-(3-fluoro-6-methoxyquinolin-4-yl)propyl]-3-pyrrolidinecarboxylic acid], the melting point lay within 76 to 80 °C. This molecule also yielded an MIC in the data set on E. faecalis ATCC29212 of 0.25 to 32 µg/mL (≈ 0.516 to 66 µM). This molecule gave an MIC in data set [1] of 0.12 to 2 µg/mL (≈ 0.248 to 4.13 µM). In data set [2], the MIC lay within 0.015 to 4 µg/mL (≈ 0.031 to 8.26 µM). The molecule further registered an MIC in data set [3] of 0.015 to 4 µg/mL (≈ 0.031 to 8.26 µM). In data set [4], this molecule returned an MIC of 0.015 to 4 µg/mL (≈ 0.031 to 8.26 µM).

Regarding `COc1ccc2ncc(F)c(CCCC3(C(=O)O)CCN(C/C=C/c4cc(F)ccc4F)C3)c2c1` (single isomer, unassigned) [Example 4, 1-[(2E)-3-(2,5-difluorophenyl)-2-propenyl]-3-[3-(3-fluoro-6-methoxyquinolin-4-yl)propyl]-3-pyrrolidinecarboxylic acid], the melting point is 80 to 84 °C.

The molecule `COc1ccc2ncc(F)c(CCCC3(C(=O)O)CCN(CCSc4cccs4)C3)c2c1` (single isomer, unassigned) [Example 17, 3-[3-(3-fluoro-6-methoxyquinolin-4-yl)propyl]-1-[2-(2-thienylthio)ethyl]-3-pyrrolidinecarboxylic acid] displayed a melting point of 160 °C.

`COc1ccc2ncc(F)c(CCCC3(C(=O)O)CCN(CCSc4cccs4)C3)c2c1` (single isomer, unassigned) [Example 18, 3-[3-(3-fluoro-6-methoxyquinolin-4-yl)propyl]-1-[2-(2-thienylthio)ethyl]-3-pyrrolidinecarboxylic acid] showed a melting point of 172 °C.

The molecule `COc1ccc2ncc(F)c(CCCC3(C(=O)O)CCN(CCOc4cc(F)ccc4F)C3)c2c1` (single isomer, unassigned) [Example 30, 1-[2-(2,5-difluorophenoxy)ethyl]-3-[3-(3-fluoro-6-methoxyquinolin-4-yl)propyl]-3-pyrrolidinecarboxylic acid] gave a melting point of 157 °C.

The molecule `COc1ccc2ncc(F)c(CCCC3(C(=O)O)CCN(C/C=C/c4cc(Cl)ccc4Cl)C3)c2c1` (single isomer, unassigned) [Example 36, 1-[(2E)-3-(2,5-dichlorophenyl)-2-propenyl]-3-[3-(3-fluoro-6-methoxyquinolin-4-yl)propyl]-3-pyrrolidinecarboxylic acid] displayed a melting point of 102 °C.

For the molecule `COc1ccc2ncc(F)c(CCCC3(C(=O)O)CCN(C/C=C/c4cc(F)c(F)c(F)c4)C3)c2c1` (single isomer, unassigned) [Example 49, 3-[3-(3-fluoro-6-methoxyquinolin-4-yl)propyl]-1-[(2E)-3-(3,4,5-trifluorophenyl)-2-propenyl]-3-pyrrolidinecarboxylic acid], the melting point was 110 °C.

Take `COc1ccc2ncc(F)c(CCCC3(C(=O)O)CCN(C/C=C/c4cc(F)c(F)c(F)c4)C3)c2c1` (single isomer, unassigned) [Example 50, 3-[3-(3-fluoro-6-methoxyquinolin-4-yl)propyl]-1-[(2E)-3-(3,4,5-trifluorophenyl)-2-propenyl]-3-pyrrolidinecarboxylic acid]: the melting point turned out to be 148 °C.

`COc1ccc2ncc(F)c(CCCC3(C(=O)O)CCN(CCSc4c(F)cccc4F)C3)c2c1` (single isomer, unassigned) [Example 57, 1-[2-[(2,6-difluorophenyl)thio]ethyl]-3-[3-(3-fluoro-6-methoxyquinolin-4-yl)propyl]-3-pyrrolidinecarboxylic acid] came in with a melting point of 106 °C.

As for `COc1ccc2ncc(F)c(CCCC3(C(=O)O)CN(C/C=C/c4cc(F)ccc4F)C3)c2c1` [Example 11, 1-[(2E)-3-(2,5-difluorophenyl)-2-propenyl]-3-[3-(3-fluoro-6-methoxyquinolin-4-yl)propyl]-3-azetidinecarboxylic acid], the melting point amounted to 211 °C.
